How the values were obtained:
[1] = target: T1, human N-type Ca channel (Homo sapiens, UniProt Q00975); experiment: Calcium influx assay (FDSS), KCl depolarization, Fluo8 dye; format: cell-based; parameters: host or cells: HEK 293; conditions: HEK 293 cells expressing human N-type Ca channel; 100 mM KCl; read-out: N Type IC50 Data FDSS
Protocol: All cell culture reagents were procured from HyClone and other reagents were from Fisher. Recombinant HEK 293 cells expressing human N-type Ca channel (Millipore) were maintained in DMEM F12 containing 10% FBS and selection antibiotics at 37 °C in 5% CO2.
Cells were incubated at 30 °C in 5% CO2 overnight. The medium was removed and cells were loaded with Fluo8 dye (AAT Bioquest) at 37 °C and 30 °C, 30 min each in darkness. Cells were washed four times with wash buffer (16 mM Herep pH 7.2, 2 mM CaCl2, 1 mM MgCl2, 5 mM glucose, 140 mM choline chloride and 2 mM KCl) leaving 15 µL buffer after the last wash. Compounds of Formula (I), serially diluted, were added to the cell plate. The plates were incubated in darkness for 15 min. Cells were depolarized with 100 mM KCl and Ca influx was measured.

[2] = target: T1, human N-type Ca channel; experiment: Electrophysiological response, QPatch (depolarization -80 mV to +20 mV); conditions: for inhibition at 10 µM: read-out: Qpatch Pulse=1 (percent inhibition); for N Type IC50 Data Qpatch Pulse=1 / N Type IC50 Data Qpatch Pulse=15: concentration range 0.01-0.3 µM
[3] = N Type IC50 Data Qpatch Pulse=15, Pulse=15, concentration range 0.3-10 µM
[4] = N Type IC50 Data Qpatch Pulse=1, Pulse=1, concentration range 0.01-1 µM
[5] = read-out: N Type IC50 Data Qpatch Pulse=15, Pulse=15, concentration range 0.01-1 µM
[6] = N Type IC50 Data Qpatch Pulse=1, Pulse=1, concentration range 0.3-10 µM
[7] = N Type IC50 Data Qpatch Pulse=15, Pulse=15, concentration range 0.01-1 µM

T1 sequence (Q00975 whole entry): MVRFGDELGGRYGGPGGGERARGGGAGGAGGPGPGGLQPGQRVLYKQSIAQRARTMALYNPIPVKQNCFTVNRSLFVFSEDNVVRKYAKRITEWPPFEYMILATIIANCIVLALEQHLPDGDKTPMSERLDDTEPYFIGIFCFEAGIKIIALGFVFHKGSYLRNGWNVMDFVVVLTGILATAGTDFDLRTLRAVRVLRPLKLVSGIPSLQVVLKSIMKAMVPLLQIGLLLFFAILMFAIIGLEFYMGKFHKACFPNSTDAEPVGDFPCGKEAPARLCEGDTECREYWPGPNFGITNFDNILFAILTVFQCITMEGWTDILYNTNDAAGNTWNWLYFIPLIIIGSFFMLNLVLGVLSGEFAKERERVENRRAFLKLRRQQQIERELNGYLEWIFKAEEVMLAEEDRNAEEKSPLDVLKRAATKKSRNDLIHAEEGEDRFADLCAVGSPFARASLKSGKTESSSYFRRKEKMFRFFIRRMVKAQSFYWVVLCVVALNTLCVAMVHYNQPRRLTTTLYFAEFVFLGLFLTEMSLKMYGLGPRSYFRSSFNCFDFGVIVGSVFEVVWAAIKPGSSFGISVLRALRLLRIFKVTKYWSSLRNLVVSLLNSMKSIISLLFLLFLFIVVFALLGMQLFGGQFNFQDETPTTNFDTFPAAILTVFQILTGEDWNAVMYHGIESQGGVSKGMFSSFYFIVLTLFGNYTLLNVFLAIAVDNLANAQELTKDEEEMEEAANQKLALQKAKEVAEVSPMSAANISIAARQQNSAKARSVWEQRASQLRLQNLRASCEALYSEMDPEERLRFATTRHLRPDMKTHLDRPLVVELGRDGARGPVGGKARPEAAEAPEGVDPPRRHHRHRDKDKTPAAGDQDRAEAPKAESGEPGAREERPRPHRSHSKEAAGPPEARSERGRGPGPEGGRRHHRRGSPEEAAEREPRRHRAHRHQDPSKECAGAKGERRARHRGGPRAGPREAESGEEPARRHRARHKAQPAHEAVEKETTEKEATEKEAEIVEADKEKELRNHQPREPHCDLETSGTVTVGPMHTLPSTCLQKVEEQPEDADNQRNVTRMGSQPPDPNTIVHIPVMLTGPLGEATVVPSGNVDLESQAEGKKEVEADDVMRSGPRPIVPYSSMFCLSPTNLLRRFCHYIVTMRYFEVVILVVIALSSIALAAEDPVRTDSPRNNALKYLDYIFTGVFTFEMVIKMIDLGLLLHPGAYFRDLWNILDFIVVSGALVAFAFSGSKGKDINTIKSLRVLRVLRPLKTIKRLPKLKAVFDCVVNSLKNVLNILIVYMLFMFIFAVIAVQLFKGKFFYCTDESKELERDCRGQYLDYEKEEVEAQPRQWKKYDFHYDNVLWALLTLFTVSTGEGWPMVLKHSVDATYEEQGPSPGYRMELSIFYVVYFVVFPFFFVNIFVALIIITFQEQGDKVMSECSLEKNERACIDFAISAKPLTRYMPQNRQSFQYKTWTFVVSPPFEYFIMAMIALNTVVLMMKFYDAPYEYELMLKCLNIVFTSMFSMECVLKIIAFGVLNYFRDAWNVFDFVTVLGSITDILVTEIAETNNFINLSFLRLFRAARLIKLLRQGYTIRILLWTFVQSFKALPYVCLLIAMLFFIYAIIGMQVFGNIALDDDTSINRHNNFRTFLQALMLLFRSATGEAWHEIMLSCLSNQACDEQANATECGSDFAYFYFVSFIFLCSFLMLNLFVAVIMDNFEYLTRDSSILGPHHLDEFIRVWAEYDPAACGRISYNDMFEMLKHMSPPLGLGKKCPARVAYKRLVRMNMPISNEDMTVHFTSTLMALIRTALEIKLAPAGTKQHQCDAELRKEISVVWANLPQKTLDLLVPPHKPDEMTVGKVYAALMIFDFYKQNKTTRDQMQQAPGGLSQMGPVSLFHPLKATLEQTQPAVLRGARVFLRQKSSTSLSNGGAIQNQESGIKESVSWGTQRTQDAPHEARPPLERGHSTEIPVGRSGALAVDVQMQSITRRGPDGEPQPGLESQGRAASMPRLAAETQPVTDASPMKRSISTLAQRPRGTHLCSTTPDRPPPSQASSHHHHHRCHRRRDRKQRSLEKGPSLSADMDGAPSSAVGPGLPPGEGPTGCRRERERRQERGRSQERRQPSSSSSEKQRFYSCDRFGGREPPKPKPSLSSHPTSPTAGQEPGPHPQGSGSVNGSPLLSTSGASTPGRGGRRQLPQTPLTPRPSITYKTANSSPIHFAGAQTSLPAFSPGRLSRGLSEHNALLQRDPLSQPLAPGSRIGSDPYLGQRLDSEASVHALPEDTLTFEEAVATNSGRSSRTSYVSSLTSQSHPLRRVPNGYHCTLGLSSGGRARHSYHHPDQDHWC
T1 sequence (P54284 whole entry partner): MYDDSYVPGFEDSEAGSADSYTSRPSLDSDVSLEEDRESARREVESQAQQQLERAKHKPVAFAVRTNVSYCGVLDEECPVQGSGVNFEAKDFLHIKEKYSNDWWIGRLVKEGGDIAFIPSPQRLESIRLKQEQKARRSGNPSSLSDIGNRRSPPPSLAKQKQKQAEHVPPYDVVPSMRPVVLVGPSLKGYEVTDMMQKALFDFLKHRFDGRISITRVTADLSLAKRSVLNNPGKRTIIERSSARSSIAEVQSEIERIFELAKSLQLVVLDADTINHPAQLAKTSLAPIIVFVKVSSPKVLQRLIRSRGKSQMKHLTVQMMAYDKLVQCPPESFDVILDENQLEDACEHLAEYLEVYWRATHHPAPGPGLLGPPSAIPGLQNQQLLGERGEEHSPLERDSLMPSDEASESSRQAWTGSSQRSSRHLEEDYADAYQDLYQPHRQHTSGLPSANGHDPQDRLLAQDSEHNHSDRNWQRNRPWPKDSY
T1 sequence (P54289 25-956 partner limits assumed): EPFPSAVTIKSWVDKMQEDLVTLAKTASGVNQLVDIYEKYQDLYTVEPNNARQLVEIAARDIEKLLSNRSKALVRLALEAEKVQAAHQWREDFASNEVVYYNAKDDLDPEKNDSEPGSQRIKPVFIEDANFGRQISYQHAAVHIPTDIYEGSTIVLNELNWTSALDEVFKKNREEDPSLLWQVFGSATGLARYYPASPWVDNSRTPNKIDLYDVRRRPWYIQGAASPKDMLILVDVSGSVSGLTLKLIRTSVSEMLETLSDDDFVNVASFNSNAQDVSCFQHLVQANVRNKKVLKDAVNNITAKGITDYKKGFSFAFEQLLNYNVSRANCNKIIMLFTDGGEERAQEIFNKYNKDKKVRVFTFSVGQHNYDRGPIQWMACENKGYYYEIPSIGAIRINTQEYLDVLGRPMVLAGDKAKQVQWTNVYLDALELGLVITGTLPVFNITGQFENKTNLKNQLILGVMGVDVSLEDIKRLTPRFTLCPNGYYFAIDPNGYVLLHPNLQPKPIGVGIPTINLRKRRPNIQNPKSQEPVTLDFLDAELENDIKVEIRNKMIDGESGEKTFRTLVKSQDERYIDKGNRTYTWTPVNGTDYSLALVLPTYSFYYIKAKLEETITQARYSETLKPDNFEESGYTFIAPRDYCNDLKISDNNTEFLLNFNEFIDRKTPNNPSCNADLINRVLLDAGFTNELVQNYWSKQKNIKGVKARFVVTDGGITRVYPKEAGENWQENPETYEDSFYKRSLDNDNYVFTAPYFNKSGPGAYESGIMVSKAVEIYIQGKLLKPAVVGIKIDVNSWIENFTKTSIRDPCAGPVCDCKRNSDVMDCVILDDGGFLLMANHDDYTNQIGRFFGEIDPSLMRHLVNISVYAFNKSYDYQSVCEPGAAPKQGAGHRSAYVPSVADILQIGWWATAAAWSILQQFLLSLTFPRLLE
T1 sequence (P54289 957-1103 partner limits assumed): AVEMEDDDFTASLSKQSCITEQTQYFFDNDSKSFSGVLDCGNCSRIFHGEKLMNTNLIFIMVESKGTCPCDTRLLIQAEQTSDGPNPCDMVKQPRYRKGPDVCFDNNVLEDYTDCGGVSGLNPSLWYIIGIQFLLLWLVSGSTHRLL

Structure (SMILES)	IC50 [1] [µM]	IC50 [2, 4] [µM]	further results
CCOc1ccc(-n2cc(C3CC(C)(C)OC(C)(C)C3)nc2-c2ccncc2OC)cc1 [Compound 3, 4-(1-(4-ethoxyphenyl)-4-(2,2,6,6-tetramethyltetrahydro-2H-pyran-4-yl)-1H-imidazol-2-yl)-3-methoxypyridine]	0.376	0.83	IC50 [2, 5]: > 1 µM
COc1ccccc1-c1nc(C2CC(C)(C)OC(C)(C)C2)cn1-c1ccc(C)cn1 [Compound 6, 2-(2-(2-methoxyphenyl)-4-(2,2,6,6-tetramethyltetrahydro-2H-pyran-4-yl)-1H-imidazol-1-yl)-5-methylpyridine]	0.739	–	–
COc1ccc(-n2cc(C3CC(C)(C)OC(C)(C)C3)nc2-c2ccccc2OC)cc1 [Compound 7, 2-(2-methoxyphenyl)-1-(4-methoxyphenyl)-4-(2,2,6,6-tetramethyltetrahydro-2H-pyran-4-yl)-1H-imidazole]	0.113	–	IC50 [2, 6]: 1.17 µM; IC50 [2, 3]: 0.68 µM
COc1ccccc1-c1nc(C2CC(C)(C)OC(C)(C)C2)cn1-c1cnc(C)nc1 [Compound 8, 5-(2-(2-methoxyphenyl)-4-(2,2,6,6-tetramethyltetrahydro-2H-pyran-4-yl)-1H-imidazol-1-yl)-2-mithylpyrimidine]	> 10	0.508	IC50 [2, 7]: > 1 µM
COc1ncccc1-c1nc(C2CC(C)(C)OC(C)(C)C2)cn1Cc1cccc(Cl)c1 [Compound 9, 3-(1-(3-chlorobenzyl)-4-(2,2,6,6-tetramethyltetrahydro-2H-pyran-4-yl)-1H-imidazol-2-yl)-2-methoxypyridine]	0.793	–	–
COc1cccnc1-c1nc(C2CC(C)(C)OC(C)(C)C2)cn1-c1ccc(C#N)cc1 [Compound 12, 4-(2-(3-methoxypyridin-2-yl)-4-(2,2,6,6-tetramethyltetrahydro-2H-pyran-4-yl)-1H-imidazol-1-yl)benzonitrile]	0.63	–	inhibition at 10 µM [2]: 28%
COc1ncccc1-c1nc(C2CC(C)(C)OC(C)(C)C2)cn1-c1ccc(C#N)c(C)c1 [Compound 15, 4-(2-(2-methoxypyridin-3-yl)-4-(2,2,6,6-tetramethyltetrahydro-2H-pyran-4-yl)-1H-imidazol-1-yl)-2-methylbenzonitrile]	0.256	–	N Type IC50 Data Qpatch Pulse=1 [2]: poor fit(0.01-0.3 µM); N Type IC50 Data Qpatch Pulse=15 ([2]; Pulse=15): poor fit(0.01-0.3 µM)
COc1ncccc1-c1nc(C2CC(C)(C)OC(C)(C)C2)cn1-c1ccc(F)c(F)c1F [Compound 16, 2-methoxy-3-(4-(2,2,6,6-tetramethyltetrahydro-2H-pyran-4-yl)-1-(2,3,4-trifluorophenyl)-1H-imidazol-2-yl)pyridine]	0.359	–	N Type IC50 Data Qpatch Pulse=1 [2]: poor fit(0.01-0.3 µM); N Type IC50 Data Qpatch Pulse=15 ([2]; Pulse=15): poor fit(0.01-0.3µM)
COc1cccnc1-c1nc(C2CC(C)(C)OC(C)(C)C2)cn1-c1ccc(F)c(Cl)c1 [Compound 17, 2-(1-(3-chloro-4-fluorophenyl)-4-(2,2,6,6-tetramethyltetrahydro-2H-pyran-4-yl)-1H-imidazol-2-yl)-3-methoxypyridine]	0.591	–	IC50 [2, 6]: 4.4 µM; IC50 [2, 3]: 5.2 µM
COc1ccncc1-c1nc(C2CC(C)(C)OC(C)(C)C2)cn1-c1ccc(F)c(Cl)c1 [Compound 20, 3-(1-(3-chloro-4-fluorophenyl)-4-(2,2,6,6-tetramethyltetrahydro-2H-pyran-4-yl)-1H-imidazol-2-yl)-4-methoxypyridine]	1.06	> 1	IC50 [2, 5]: > 1 µM
COc1ccccc1-c1nc(C2CC(C)(C)OC(C)(C)C2)cn1-c1ccc(C)c(C#N)c1 [Compound 22, 5-(2-(2-methoxyphenyl)-4-(2,2,6,6-tetramethyltetrahydro-2H-pyran-4-yl)-1H-imidazol-1-yl)-2-methylbenzonitrile]	0.075	0.59	IC50 [2, 7]: 0.847 µM
COc1cc(-n2cc(C3CC(C)(C)OC(C)(C)C3)nc2-c2cccnc2OC)ccc1F [Compound 24, 3-(1-(4-fluoro-3-methoxyphenyl)-4-(2,2,6,6-tetramethyltetrahydro-2H-pyran-4-yl)-1H-imidazol-2-yl)-2-methoxypyridine]	7.15	–	IC50 [2, 5]: > 1 µM
COc1cccnc1-c1nc(C2CC(C)(C)OC(C)(C)C2)cn1-c1ccc(F)c(F)c1 [Compound 35, 2-(1-(3,4-difluorophenyl)-4-(2,2,6,6-tetramethyltetrahydro-2H-pyran-4-yl)-1H-imidazol-2-yl)-3-methoxypyridine]	0.838	–	–
COc1ncccc1-c1nc(C2(O)CC(C)(C)OC(C)(C)C2)cn1-c1ccc(C#N)cc1 [Compound 115, 4-(4-(4-hydroxy-2,2,6,6-tetramethyltetrahydro-2H-pyran-4-yl)-2-(2-methoxypyridin-3-yl)-1H-imidazol-1-yl)benzonitrite]	0.731	–	–
COc1ccccc1-c1nc(C2=CC(C)(C)OC(C)(C)C2)cn1-c1ccc(C#N)c(F)c1 [Compound 126]	–	–	inhibition at 10 µM [2]: 29%

More lines, in order of falling IC50 [1], values ahead:

IC50 [1] [µM]	IC50 [2, 4] [µM]	Structure (SMILES)	further results
10	–	COc1ccccc1-c1nc(C2CC(C)(C)OC(C)(C)C2)cn1Cc1cncnc1 [Compound 100, 5-((2-(2-methoxyphenyl) - 4-(2,2,6,6-tetramethyltetrahydro-2H-pyran-4-yl)-1H-imidazol-1-yl)methyl) pyrimidine]	–
2.7	0.266	COc1ccccc1-c1nc(C2CC(C)(C)OC(C)(C)C2)cn1-c1ccc(Cl)c(C#N)c1 [Compound 14, 2-chloro-5-(2-(2-methoxyphenyl)-4-(2,2,6,6-tetramethyltetrahydro-2H-pyran-4-yl)-1H-imidazol-1-yl)benzonitrile]	IC50 [2, 7]: > 1 µM
0.818	> 1	COc1ncccc1-c1nc(C2CC(C)(C)OC(C)(C)C2)cn1-c1ccc(C)c(C#N)c1 [Compound 25, 5-(2-(2-methoxypyridin-3-yl)-4-(2,2,6,6-tetramethyltetrahydro-2H-pyran-4-yl)-1H-imidazol-1-yl)-2-methylbenzonitrile]	IC50 [2, 5]: > 1 µM
0.464	–	COc1cccnc1-c1nc(C2(O)CC(C)(C)OC(C)(C)C2)cn1-c1ccc(Cl)cc1 [Compound 104, 4-(1-(4-chlorophenyl)-2-(3-methoxypyridin-2-yl)-1H-imidazol-4-yl)-2,2,6,6-tetramethyltetrahydro-2H-pyran-4-ol]	–
0.31	–	COc1ccc(-n2cc(C3CC(C)(C)OC(C)(C)C3)nc2-c2cccnc2OC)cc1F [Compound 23, 3-(1-(3-fluoro-4-methoxyphenyl)-4-(2,2,6,6-tetramethyltetrahydro-2H-pyran-4-yl)-1H-imidazol-2-yl)-2-methoxypyridine]	IC50 [2, 5]: > 1 µM
0.263	0.966	COc1cccnc1-c1nc(C2CC(C)(C)OC(C)(C)C2)cn1-c1ccc(Cl)c(F)c1 [Compound 19, 2-(1-(4-chloro-3-fluorophenyl)-4-(2,2,6,6-tetramethyltetrahydro-2H-pyran-4-yl)-1H-imidazol-2-yl)-3-methoxypyridine]	inhibition at 1 µM ([2]; read-out: Qpatch Pulse=15 (percent inhibition)): 28%
0.2	> 1	COc1cnccc1-c1nc(C2CC(C)(C)OC(C)(C)C2)cn1-c1ccc(Cl)c(F)c1 [Compound 13, 4-(1-(4-chloro-3-fluorophenyl)-4-(2,2,6,6-tetramethyltetrahydro-2H-pyran-4-yl)-1H-imidazol-2-yl)-3-methoxypyridine]	IC50 [2, 5]: > 1 µM
0.191	–	COc1ccccc1-c1nc(C2CC(C)(C)OC(C)(C)C2)cn1-c1ccc(C)nc1 [Compound 5, 5-(2-(2-methoxyphenyl)-4-(2,2,6,6-tetramethyltetrahydro-2H-pyran-4-yl)-1H-imidazol-1-yl)-2-methylpyridine]	IC50 [2, 6]: 5.9 µM
0.166	–	COc1cccnc1-c1nc(C2CC(C)(C)OC(C)(C)C2)cn1-c1ccc(Cl)cc1 [Compound 67, 2-(1-(4-chlorophenyl)-4-(2,2,6,6-tetramethyltetrahydro-2H-pyran-4-yl)-1H-imidazol-2-yl)-3-methoxypyridine]	–
0.128	–	COc1cnccc1-c1nc(C2CC(C)(C)OC(C)(C)C2)cn1-c1ccc(F)cc1 [Compound 2, 4-(1-(4-fluorophenyl)-4-(2,2,6,6 tetramethyltetrahydro-2H-pyran-4-yl)-1H-imidazol-2-yl)-3-methoxypyridine]	IC50 [2, 3]: 6.2 µM
0.119	0.639	COc1ccccc1-c1nc(C2CC(C)(C)OC(C)(C)C2)cn1-c1ccc(C#N)c(C)c1 [Compound 21, 4-(2-(2-methoxyphenyl)-4-(2,2,6,6-tetramethyltetrahydro-2H-pyran-4-yl)-1H-imidazol-1-yl)-2-methylbenzonitrile]	–
0.108	0.694	COc1cnccc1-c1nc(C2CC(C)(C)OC(C)(C)C2)cn1-c1ccc(F)c(Cl)c1 [Compound 18, 4-(1-(3-chloro-4-fluorophenyl)-4-(2,2,6,6-tetramethyltetrahydro-2H-pyran-4-yl)-1H-imidazol-2-yl)-3-methoxypyridine]	IC50 [2, 7]: 0.376 µM
0.017	–	COc1ccccc1-c1nc(C2CC(C)(C)OC(C)(C)C2)cn1-c1ccc(F)cc1 [Compound 4, 1-(4-fluorophenyl)-2-(2-methoxyphenyl)-4-(2,2,6,6-tetramethyltetrahydro-2H-pyran-4-yl)-1H-imidazole]	IC50 [2, 3]: 1.06 µM

— patent publication EP3033337B1, “SUBSTITUTED IMIDAZOLES AS N-TYPE CALCIUM CHANNEL BLOCKERS” (Janssen Pharmaceutica NV, priority 2013, dated 2015)
